Laboratory results as given in ChEMBL document CHEMBL2311440, “Inhibitors of HIV-1 attachment. Part 8: the effect of C7-heteroaryl substitution on the potency, and in vitro and in vivo profiles of indole-based inhibitors” (Bioorg Med Chem Lett, 2013).

Legend:
[1] = Half life in human liver microsomes; format: ADME, Microsome
[2] = test system: Human immunodeficiency virus 1; assay: Antiviral activity against M-tropic HIV1 Bal virus by cell culture based assay; format: functional, organism-based; conditions: Human immunodeficiency virus 1, Bal
[3] = test system: Human immunodeficiency virus 1; assay: Antiviral activity against T-tropic HIV1 NL4-3 virus by cell culture based assay; format: functional, organism-based; conditions: Human immunodeficiency virus 1, NL4-3
[4] = Antiviral activity against T-tropic HIV1 BRU virus by cell culture based assay; format: functional, Human immunodeficiency virus type 1 (BRU ISOLATE); conditions: Human immunodeficiency virus 1
[5] = test system: Human immunodeficiency virus 1; assay: Antiviral activity against HIV1 JRFL pseudotyped virus infected in HeLa CD4+ CCR5+ cells by single-cycle viral infectivity assay; format: functional, organism-based; conditions: Human immunodeficiency virus 1, JRFL
[6] = Cytotoxicity against human HeLa CD4+ CCR5+ cells after 6 days by XTT assay; format: cell-based
[7] = Permeability across human Caco2 cells at pH 6.5; format: ADME, cell-based; conditions: Caco-2, pH 6.5, read-out: permeability
[8] = Oral bioavailability in rat at 5 mg/kg; format: ADME, organism-based; conditions: in vivo
[9] = Clearance in rat at 1 mg/kg, iv; format: ADME, organism-based; design: dose 1 mg/kg, route intravenous; conditions: in vivo
[10] = Cmax in rat at 5 mg/kg, po; format: ADME, organism-based; design: dose 5 mg/kg, route oral; conditions: in vivo
[11] = Half life in rat at 1 mg/kg, iv; format: ADME, organism-based; design: dose 1 mg/kg, route intravenous; conditions: in vivo
[12] = Safety index, ratio fo CC50 for human HeLa CD4+ CCR5+ cells to EC50 for HIV1 JRFL; format: toxicity; conditions: read-out: Ratio CC50/EC50

Row | Compound | half-life [1] [min] | EC50 [5] [nM] | CC50 at 144 h [6] [nM] | Papp [7] [×10⁻⁶ cm/s] | also measured
1 | O=C(C(=O)N1CCN(C(=O)c2ccccc2)CC1)c1c[nH]c2cccc(F)c12 | > 100 | 1.24 | > 300000 |  | EC50 [2]: 700 nM; EC50 [3]: 1500 nM; EC50 [4]: 90 nM
2 | C[C@@H]1CN(C(=O)c2ccccc2)CCN1C(=O)C(=O)c1c[nH]c2c(-c3nn[nH]n3)ccc(F)c12 | > 100 | 0.07 | > 300000 | < 1.5 | 
3 | C[C@@H]1CN(C(=O)c2ccccc2)CCN1C(=O)C(=O)c1c[nH]c2c(-c3ncon3)ccc(F)c12 |  | 0.04 | 125000 |  | 
4 | COc1ccc(-c2ncon2)c2[nH]cc(C(=O)C(=O)N3CCN(C(=O)c4ccccc4)CC3)c12 | 16 | 0.16 | 22000 | 14.8 | 
5 | Cc1nnc(-c2ccc(F)c3c(C(=O)C(=O)N4CCN(C(=O)c5ccccc5)CC4)c[nH]c23)[nH]1 | 25 | 0.16 | 159000 | 8.9 | 
6 | NC(=O)c1nc(-c2ccc(F)c3c(C(=O)C(=O)N4CCN(C(=O)c5ccccc5)CC4)c[nH]c23)no1 |  | 0.1 | 154000 |  | 
7 | CC(=O)Nc1nc(-c2ccc(F)c3c(C(=O)C(=O)N4CCN(C(=O)c5ccccc5)CC4)c[nH]c23)no1 |  | 0.1 | 229000 |  | 
8 | CN(C)c1nc(-c2ccc(F)c3c(C(=O)C(=O)N4CCN(C(=O)c5ccccc5)CC4)c[nH]c23)no1 |  | 0.3 | 23000 |  | 
9 | CNc1nc(-c2ccc(F)c3c(C(=O)C(=O)N4CCN(C(=O)c5ccccc5)CC4)c[nH]c23)no1 |  | 0.04 | 26000 |  | 
10 | Nc1nc(-c2ccc(F)c3c(C(=O)C(=O)N4CCN(C(=O)c5ccccc5)CC4)c[nH]c23)no1 | 17 | 0.0082 | 43000 | 6.9 | 
11 | COc1nc(-c2ccc(F)c3c(C(=O)C(=O)N4CCN(C(=O)c5ccccc5)CC4)c[nH]c23)no1 |  | 3.55 | 44000 |  | 
12 | Cc1noc(-c2ccc(F)c3c(C(=O)C(=O)N4CCN(C(=O)c5ccccc5)CC4)c[nH]c23)n1 |  | 0.094 | > 300000 |  | 
13 | Cc1nc(-c2ccc(F)c3c(C(=O)C(=O)N4CCN(C(=O)c5ccccc5)CC4)c[nH]c23)no1 |  | 0.06 | 226000 |  | 
14 | O=C(C(=O)N1CCN(C(=O)c2ccccc2)CC1)c1c[nH]c2c(-c3nc4ccccc4[nH]3)ccc(F)c12 |  | 0.53 | 11000 |  | 
15 | O=C(C(=O)N1CCN(C(=O)c2ccccc2)CC1)c1c[nH]c2c(-c3nc4ccccc4o3)ccc(F)c12 |  | 0.88 | 27000 |  | 
16 | O=C(C(=O)N1CCN(C(=O)c2ccccc2)CC1)c1c[nH]c2c(-c3nn[nH]n3)ccc(F)c12 | > 200 | 0.08 | 245000 | 1.7 | EC50 [2]: 0.37 nM; EC50 [3]: 9.41 nM; bioavailability [8]: 2.3%; clearance [9]: 3.1 mL/min/kg; EC50 [4]: 6.38 nM; Cmax [10]: 95 ng/mL; half-life [11]: 67 min
17 | O=C(C(=O)N1CCN(C(=O)c2ccccc2)CC1)c1c[nH]c2c(-c3nnc[nH]3)ccc(F)c12 | 32 | 0.03 | 199000 | 1.9 | bioavailability [8]: 14%; clearance [9]: 3.7 mL/min/kg; Cmax [10]: 369 ng/mL; half-life [11]: 187 min
18 | O=C(C(=O)N1CCN(C(=O)c2ccccc2)CC1)c1c[nH]c2c(-c3nnco3)ccc(F)c12 | 10 | 0.05 | > 300000 |  | 
19 | O=C(C(=O)N1CCN(C(=O)c2ccccc2)CC1)c1c[nH]c2c(-c3ncon3)ccc(F)c12 | 17 | 0.05 | 74000 | > 30 | EC50 [2]: 7.61 nM; EC50 [3]: 8.66 nM; bioavailability [8]: 89%; clearance [9]: 3.9 mL/min/kg; EC50 [4]: 3.38 nM; selectivity ratio [12]: 1500; Cmax [10]: 2610 ng/mL; half-life [11]: 120 min
20 | O=C(C(=O)N1CCN(C(=O)c2ccccc2)CC1)c1c[nH]c2c(-c3cnc[nH]3)ccc(F)c12 | 16 | 0.06 | > 300000 | 3.7 | 
21 | O=C(C(=O)N1CCN(C(=O)c2ccccc2)CC1)c1c[nH]c2c(-c3cnco3)ccc(F)c12 | 2.9 | 0.0054 | > 300000 | 12.2 | bioavailability [8]: 47%; clearance [9]: 17 mL/min/kg; Cmax [10]: 444 ng/mL; half-life [11]: 65 min
22 | O=C(C(=O)N1CCN(C(=O)c2ccccc2)CC1)c1c[nH]c2c(-c3ncco3)ccc(F)c12 |  | 0.05 | 192000 |  | 
23 | O=C(C(=O)N1CCN(C(=O)c2ccccc2)CC1)c1c[nH]c2c(-c3nccs3)ccc(F)c12 |  | 0.0067 | 23000 |  | 
24 | O=C(C(=O)N1CCN(C(=O)c2ccccc2)CC1)c1c[nH]c2c(-c3ccsc3)ccc(F)c12 |  | 0.01 | 27000 |  | 
25 | O=C(C(=O)N1CCN(C(=O)c2ccccc2)CC1)c1c[nH]c2c(-c3cccs3)ccc(F)c12 |  | 0.06 | 5300 |  | 
26 | O=C(C(=O)N1CCN(C(=O)c2ccccc2)CC1)c1c[nH]c2c(-c3cccnc3)ccc(F)c12 |  | 0.06 | 10000 |  | 
27 | O=C(C(=O)N1CCN(C(=O)c2ccccc2)CC1)c1c[nH]c2c(-c3ccccn3)ccc(F)c12 |  | 0.12 | 17000 |  | 
28 | COc1ccc(-c2ccc(F)c3c(C(=O)C(=O)N4CCN(C(=O)c5ccccc5)CC4)c[nH]c23)cc1 |  | 0.04 | 21000 |  | 
29 | O=C(C(=O)N1CCN(C(=O)c2ccccc2)CC1)c1c[nH]c2c(-c3ccccc3)ccc(F)c12 |  | 0.43 | 6800 |  | 
30 | O=C(C(=O)N1CCN(C(=O)c2ccccc2)CC1)c1c[nH]c2ccccc12 |  | 153 | 275000 |  | 
